Test results taken from patent US20050004171A1, “Novel substituted benzimidazole dosage forms and method of using same” (priority 1996, published 2005).
Several values for one entry are separate records, joined by “and”; a condition that tells them apart may be missing. Identical values can stand only once. Entries after “also recorded” stand apart in the source; their conditions may differ. Like-named read-outs stand apart in the source and are kept apart here.

Assays:
[1] = cited from earlier work; for Solubility: at 25° C.; for pH: amino acid
[2] = cited from earlier work; for pH: pH is altered by concentration and temperature; for Solubility: solubility is altered by temperature
[3] = cited from earlier work
[4] = acidic stomach / gastric environment (pH of 1.2 where stated), upon complete dissolution; cited from earlier work
[5] = Calculation of Essential pH and Stability Range Factor (SRF); format: physicochemical; conditions: calculated from pKa; read-out: Stability Range Factor (SRF), pH range (pKa + 0.7) to 10.9
Experimental: A proton pump inhibitor dose within its calculated pHE range is designed to ensure sufficient proton pump inhibitor protection from acid degradation such that delivery to and action upon proton pumps occur. In one desirable embodiment, the pHE is the sum of the pKa of a given proton pump inhibitor plus about 0.7.
SRF is calculated based on the desirable shelf-life (or a dwell time), the environmental pH and the amount of acid expected to be encountered, along with a knowledge of the time of exposure expected after the drug is administered and before the drug reaches the blood (i.e., the dwell time).
The upper limit of the SRF is a function of the tolerability of the gastrointestinal mucosa to alkaline substances, which is determined by the Formulation pH and the concentration of alkaline material presented. […] It is acknowledged that the amount of buffer is an important aspect of the tissue destructive potential of an alkaline substance.
Examples of pHE calculations with SRF for specific proton pump inhibiting agents are as follows:
pHE of proton pump inhibitor=pKa of proton pump inhibitor+0.7.

[6] = clinical; conditions: human, plasma, 40 mg
[7] = system: gastric pH; test: Example XIV: continuous gastric pH monitoring (Zinetics probe) after omeprazole suspension; conditions: from 1 h after administration for the entire 24-h study period; both routes
[8] = system: stress-related mucosal bleeding; test: Example IX: clinically significant stress-related mucosal bleeding, mortality, pneumonia and adverse events in mechanically ventilated critically ill patients
[9] = clinical; conditions: human, plasma, oral, 40 mg
[10] = system: gastric pH; test: Example IX: gastric pH of nasogastric aspirate (pH paper) in mechanically ventilated critically ill patients; format: in vivo, human; conditions: mean ± standard deviation where given
Experimental: Each dose was administered through the nasogastric tube.
Gastric pH was measured immediately after aspirating gastric contents through the nasogastric tube. pH paper (pHydrion improved pH papers, Microessential Laboratory, Brooklyn, N.Y.) was used to measure gastric aspirate pH. The pH range of the test strips was 1 to 11, in increments of one pH unit. Gastric pH was measured before the initiation of omeprazole solution therapy, immediately before each dose, and every four hours between doses.

[11] = Example XV: omeprazole concentration vs time after single dose SOS in patients at risk for SRMD (HPLC); conditions: single dose SOS 40 mg

Compound	Solubility [1]	pH [1]	pH [2]	other results
CC(C)C[C@H](N)C(=O)O [Leucine]	2.426 g/100 g H2O			
N[C@@H](Cc1ccccc1)C(=O)O [Phenylalanine]	2.965 g/100 g H2O	5.48		
Calcium glycerophosphate			7	
O=C([O-])CC(O)(CC(=O)[O-])C(=O)[O-].O=C([O-])CC(O)(CC(=O)[O-])C(=O)[O-].[Ca+2].[Ca+2].[Ca+2] [Calcium citrate]			6.8	
N[C@@H](Cc1ccc(O)cc1)C(=O)O [Tyrosine]		5.66		
N[C@@H](CO)C(=O)O [Serine]		5.68		
NC(=O)CC[C@H](N)C(=O)O [Glutamine]	2.5 g/100 g H2O			
Cc1c(OCC(F)(F)F)ccnc1C[S+]([O-])c1nc2ccccc2[nH]1 (centres unmarked) [Lansoprazole, lansoprazole]				Solubility in water [3]: very slightly; pKa [3]: Lansoprazole has a pKa of 4.1; thus, the Essential pH = 4.1 + 0.7 ≧ 4.8; Solubility in water ([3]; listed as Lansoprazole base): very slightly soluble in water; time in which drug could undergo 50% degradation [4]: 2 min; Stability Range Factor (pH range) [5]: 4.8 to 10.9
Magnesium gluconate			7.3	
Calcium gluconate			7.4	
CC[C@H](C)[C@H](N)C(=O)O [Isoleucine]	4.117 g/100 g H2O	5.94		
N[C@@H](CCC(=O)O)C(=O)O [Glutamic Acid]		3.22		
N[C@@H](CC(=O)O)C(=O)O [Aspartic Acid]		2.77		
O=C([O-])CC(O)(CC(=O)[O-])C(=O)[O-].[Na+].[Na+].[Na+] [Sodium citrate]			5	
COCCCOc1ccnc(C[S+]([O-])c2nc3ccccc3[nH]2)c1C (centres unmarked) [Rabeprazole sodium]				Solubility in water [3]: very soluble in water; pKa [3]: 4.9; time in which drug could undergo 50% degradation [4]: less than 1.5 minutes
COc1ccnc(C[S+]([O-])c2nc3ccc(OC(F)F)cc3[nH]2)c1OC (centres unmarked) [Pantoprazole sodium]				Solubility in water [3]: very soluble; pKa [3]: 3; Solubility in water ([3]; listed as pantoprazole sodium): very soluble in water; time in which drug could undergo 50% degradation [4]: less than 5 minutes
CC(O)C(=O)[O-].CC(O)C(=O)[O-].[Mg+2] (centres unmarked) [Magnesium lactate]			5.5-7.5	
COc1ccc2nc([S@@+]([O-])Cc3ncc(C)c(OC)c3C)[nH]c2c1 [esomeprazole]				pKa [3]: Essential pH (esomeprazole pKa = 3.9 + 0.7 ≧ 4.6)
COc1ccnc(C[S+]([O-])c2nc3ccc(OC(F)F)cc3[nH]2)c1OC (centres unmarked) [pantoprazole]				Stability Range Factor (pH range) [5]: 3.7 to 10.9
CC(O)C(=O)[O-].[Na+] (centres unmarked) [Sodium lactate]			7	

Compound	Solubility [1]	pH [1]	pH [2]	other results
COCCCOc1ccnc(C[S+]([O-])c2nc3ccccc3[nH]2)c1C (centres unmarked) [rabeprazole]				Stability Range Factor (pH range) [5]: 5.6 to 10.9
O=P(O)(O)OP(=O)(O)OP(=O)(O)O [Sodium tripolyphosphate]			9.7-10	Solubility [2]: 6 gm/100 mL
COc1ccc2[nH]c([S+]([O-])Cc3ncc(C)c(OC)c3C)nc2c1 (centres unmarked) [Omeprazole]				Solubility in water [3]: slightly soluble; pKa [3]: Omeprazole has a pKa of 3.9; thus, the Essential pH = 3.9 + 0.7 ≧ 4.6; Solubility in water ([3]; listed as Omeprazole base): only slightly soluble in water; concentration at 3 min [6]: 27.5 ng/mL; concentration at 5 min [6]: 73.5 ng/mL; concentration at 8 h [6]: 232 ng/mL; concentration at 75 min ([6]; oral): 610 ng/mL; mean intragastric pH values [7]: > 4; adverse event or drug interaction attributable to omeprazole ([8]; high-risk population): No patient; also recorded: No adverse events or drug interaction; incidence of pneumonia ([8]; nine of 75 patients): twelve; concentration at 0 h [9]: 0 ng/mL; time in which drug could undergo 50% degradation [4]: less than 3 minutes; Stability Range Factor (pH range) [5]: 4.6 to 10.9; gastric pH four hours after omeprazole was first administered (mean) ([10]; 40 mg omeprazole solution per ng tube): 7.1 and 7.1±1.1; lowest gastric pH after starting omeprazole (mean) [10]: 5.6 and 5.6±1.3; mean gastric pH after starting omeprazole (mean) [10]: 6.8 and 6.8±0.6; absorption as measured by Area Under the Curve (AUC) compared to enteric-coated form [11]: did not appear to be significantly decreased
CC(C)[C@H](N)C(=O)O [Valine]	8.85 g/100 g H2O	5.96		
NCC(=O)O [Glycine]		5.97		
N[C@@H](Cc1c[nH]c2ccccc12)C(=O)O [Tryptophan]	1.136 g/100 g H2O	5.89		
N=C(N)NCCC[C@H](N)C(=O)O [Arginine]		11.15		
O=P([O-])([O-])[O-].[Na+].[Na+].[Na+] [Sodium phosphate (tribasic)]			10.7-12.1	
O=P([O-])([O-])O.[Na+].[Na+] [Dibasic sodium phosphate]			8.6-9.3	
N[C@@H](Cc1c[nH]cn1)C(=O)O [Histidine]	4.19 g/100 g H2O	7.47		
N[C@@H](CS)C(=O)O [Cysteine]	Very	5.02		
C[C@@H](O)[C@H](N)C(=O)O [Threonine]		5.64		
NC(=O)C[C@H](N)C(=O)O [Asparagine]	3.53 g/100 g H2O	5.41		
O=C([O-])[C@H](O)[C@@H](O)[C@H](O)[C@H](O)CO.[Na+] [Sodium gluconate]			6-8	
O=C(O)[C@@H]1CCCN1 [Proline]		6.30		
CSCC[C@H](N)C(=O)O [Methionine]	3.381 g/100 g H2O	5.74		
CC(O)C(=O)[O-].CC(O)C(=O)[O-].[Ca+2] (centres unmarked) [Calcium lactate]			7	
[O]=[Mg] [Magnesium oxide]			9.5-10.5	Solubility [2]: 0.62 mg/100 mL
C[C@H](N)C(=O)O [Alanine]	16.65 g/100 g H2O	6		
NCCCC[C@H](N)C(=O)O [Lysine]	Very	9.59		
